Measured values taken from patent US9663496B2, “AMPK-activating heterocyclic compounds and methods for using the same” (Rigel Pharmaceuticals, Inc., priority 2010, dated 2017).
pEC50: −log10 of the molar value.

What follows are molecules tested against AMPK (assay: AMPK activation, enzyme-linked immunosorbent assay). Details: EC50 for AMPK activation, ELISA.
Assay type: biochemical
Outline: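 Kit-based immunoassay; compounds screened as activators; standard reagents and protocol.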

SMILES	pEC50
N#Cc1ccc(CN2CCC(NC(=O)c3ccc(C(=O)N4C5CCC4CC(Oc4ccc(C#N)cc4)C5)cn3)CC2)cc1 [Compound 280, N-(1-(4-cyanobenzyl)piperidin-4-yl)-5-((1R,3r,5S)-3-(4-cyanophenoxy)-8-azabicyclo[3.2.1]octane-8-carbonyl)picolinamide]	> 6.30
O=C(NC1CCN(Cc2cc(F)cc(F)c2)CC1)c1ccc(C(=O)N2CC[C@H](Oc3ccc(F)cc3)C2)cn1 [Compound 292, N-(1-(3,5-difluorobenzyl)piperidin-4-yl)-5-((S)-3-(4-fluorophenoxy)pyrrolidine-1-carbonyl)picolinamide]	> 6.30
O=C(NC1CCN(Cc2cc(F)cc(F)c2)CC1)c1ccc(C(=O)N2CCC(Oc3ccc(C(F)(F)F)cc3)CC2)cn1 [Compound 294, N-(1-(3,5-difluorobenzyl)piperidin-4-yl)-5-(4-(4-(trifluoromethyl)phenoxy)piperidine-1-carbonyl)picolinamide]	> 6.30
COc1ccc(OC2CCN(C(=O)c3ccc(C(=O)NC4CCN(Cc5cc(F)cc(F)c5)CC4)nc3)CC2)cc1 [Compound 296, N-(1-(3,5-difluorobenzyl)piperidin-4-yl)-5-(4-(4-methoxyphenoxy)piperidine-1-carbonyl)picolinamide]	> 6.30
O=C(NC1CCN(Cc2cc(F)cc(F)c2)CC1)c1ccc(C(=O)N2CCC(Oc3ccc(F)c(F)c3)CC2)cn1 [Compound 297, N-(1-(3,5-difluorobenzyl)piperidin-4-yl)-5-(4-(3,4-difluorophenoxy)piperidine-1-carbonyl)picolinamide]	> 6.30
O=C(NC1CCN(Cc2cc(F)cc(F)c2)CC1)c1ccc(C(=O)N2CCC(C(=O)c3ccc(F)c(F)c3)CC2)cn1 [Compound 298, 5-(4-(3,4-difluorobenzoyl)piperidine-1-carbonyl)-N-(1-(3,5-difluorobenzyl)piperidin-4-yl)picolinamide]	> 6.30
COc1ccc(C(=O)C2CCN(C(=O)c3ccc(C(=O)N[C@H]4CC[C@@H](Oc5cc(F)cc(F)c5)CC4)nc3)CC2)cc1 [Compound 300, N-((cis)-4-(3,5-difluorophenoxy)cyclohexyl)-5-(4-(4-methoxybenzoyl)piperidine-1-carbonyl)picolinamide]	> 6.30
N#Cc1ccc(CN2CCC(NC(=O)c3ccc(N4CCC(Oc5ccc(C(F)(F)F)cc5)CC4)cn3)CC2)cc1 [Compound 301, N-(1-(4-cyanobenzyl)piperidin-4-yl)-5-(4-(4-(trifluoromethyl)phenoxy)piperidin-1-yl)picolinamide]	> 6.30
COc1ccc(C(=O)C2CCN(c3ccc(C(=O)NC4CCN(Cc5ccc(C#N)cc5)CC4)nc3)CC2)cc1 [Compound 302, N-(1-(4-cyanobenzyl)piperidin-4-yl)-5-(4-(4-methoxybenzoyl)piperidin-1-yl)picolinamide]	> 6.30
N#Cc1ccc(OC2CCN(C(=O)c3ccc(C(=O)N[C@H]4CC[C@@H](Oc5ccc(F)cc5)CC4)nc3)CC2)cc1 [Compound 303, 5-(4-(4-cyanophenoxy)piperidine-1-carbonyl)-N-((cis)-4-(4-fluorophenoxy)cyclohexyl)picolinamide]	> 6.30
O=C(N[C@H]1CC[C@@H](Oc2ccc(F)cc2)CC1)c1ccc(C(=O)N2CCC(C(=O)c3ccc(F)cc3)CC2)cn1 [Compound 304, 5-(4-(4-fluorobenzoyl)piperidine-1-carbonyl)-N-((cis)-4-(4-fluorophenoxy)cyclohexyl)picolinamide]	> 6.30

Results, then the molecule that gave them:

pEC50	SMILES
> 6.30	COc1cccc(OC2CCCN(C(=O)c3ccc(C(=O)NC4CCN(Cc5ccc(C#N)cc5)CC4)nc3)C2)c1 (centres unmarked) [Compound 277, N-(1-(4-cyanobenzyl)piperidin-4-yl)-5-(3-(3-methoxyphenoxy)piperidine-1-carbonyl)picolinamide]
> 6.30	N#Cc1ccc(CN2CCC(NC(=O)c3ccc(C(=O)N4CC[C@@H](Oc5ccc(F)cc5)C4)cn3)CC2)cc1 [Compound 278, (R)—N-(1-(4-cyanobenzyl)piperidin-4-yl)-5-(3-(4-fluorophenoxy)pyrrolidine-1-carbonyl)picolinamide]
> 6.30	N#Cc1ccc(CN2CCC(NC(=O)c3ccc(C(=O)N4CCC(C(=O)c5ccc(F)c(F)c5)CC4)cn3)CC2)cc1 [Compound 281, N-(1-(4-cyanobenzyl)piperidin-4-yl)-5-(4-(3,4-difluorobenzoyl)piperidine-1-carbonyl)picolinamide]
> 6.30	N#Cc1ccc(CN2CCC(NC(=O)c3ccc(C(=O)N4CCC(Oc5ccc(F)cc5F)CC4)cn3)CC2)cc1 [Compound 282, N-(1-(4-cyanobenzyl)piperidin-4-yl)-5-(4-(2,4-difluorophenoxy)piperidine-1-carbonyl)picolinamide]
> 6.30	N#Cc1ccc(CN2CCC(NC(=O)c3ccc(C(=O)N4CCC(Oc5cccnc5)CC4)cn3)CC2)cc1 [Compound 283, N-(1-(4-cyanobenzyl)piperidin-4-yl)-5-(4-(pyridin-3-yloxy)piperidine-1-carbonyl)picolinamide]
> 6.30	CCOC(=O)c1ccc(OC2CCN(C(=O)c3ccc(C(=O)NC4CCN(Cc5ccc(C#N)cc5)CC4)nc3)CC2)cc1 [Compound 284, ethyl 4-(1-(6-(1-(4-cyanobenzyl)piperidin-4-ylcarbamoyl)nicotinoyl)piperidin-4-yloxy)benzoate]
> 6.30	COc1ccc(CN2CCC(NC(=O)c3ccc(C(=O)N4CCN(Cc5ccc(C#N)cc5)CC4)cn3)CC2)cc1 [Compound 285, 5-(4-(4-cyanobenzyl)piperazine-1-carbonyl)-N-(1-(4-methoxybenzyl)piperidin-4-yl)picolinamide]
> 6.30	COc1ccc(C(=O)C2CCN(C(=O)c3ccc(C(=O)NC4CCN(Cc5cc(F)cc(F)c5)CC4)nc3)CC2)cc1 [Compound 287, N-(1-(3,5-difluorobenzyl)piperidin-4-yl)-5-(4-(4-methoxybenzoyl)piperidine-1-carbonyl)picolinamide]
> 6.30	O=C(NC1CCN(Cc2cc(F)cc(F)c2)CC1)c1ccc(C(=O)N2CCC(C(=O)c3ccc(F)cc3)CC2)cn1 [Compound 288, N-(1-(3,5-difluorobenzyl)piperidin-4-yl)-5-(4-(4-fluorobenzoyl)piperidine-1-carbonyl)picolinamide]
> 6.30	N#Cc1ccc(OC2CCN(C(=O)c3ccc(C(=O)NC4CCN(Cc5cc(F)cc(F)c5)CC4)nc3)CC2)cc1 [Compound 289, 5-(4-(4-cyanophenoxy)piperidine-1-carbonyl)-N-(1-(3,5-difluorobenzyl)piperidin-4-yl)picolinamide]
> 6.30	CC(C)(C)OC(=O)NCCCc1cc(C(=O)N2CCN(Cc3ccc(F)cc3)CC2)cnc1C(=O)NC1CCN(Cc2ccc(C#N)cc2)CC1 [Compound 290, tert-butyl 3-(2-(1-(4-cyanobenzyl)piperidin-4-ylcarbamoyl)-5-(4-(4-fluorobenzyl)piperazine-1-carbonyl)pyridin-3-yl)propylcarbamate]
> 6.30	N#Cc1ccc(CN2CCC(NC(=O)c3ncc(C(=O)N4CCN(Cc5ccc(F)cc5)CC4)cc3CCCNC(=O)CCOCCOCCOCCOCCNC(=O)CCCC[C@@H]3SC[C@@H]4NC(=O)N[C@@H]43)CC2)cc1 [Compound 291, N-(1-(4-cyanobenzyl)piperidin-4-yl)-3-(5,21-dioxo-25-((3aS,4S,6aR)-2-oxohexahydro-1H-thieno[3,4-d]imidazol-4-yl)-8,11,14,17-tetraoxa-4,20-diazapentacosyl)-5-(4-(4-fluorobenzyl)piperazine-1-carbonyl)picolinamide]
